Experimental data: patent publication US20250197428A1, “INHIBITORS OF KIF18A AND USES THEREOF” (ACCENT THERAPEUTICS, INC., priority 2022, published 2025)
Read-outs that look alike come from different tables or passages of the source.

How the values were obtained:
[1] = molecular target: KIF18A (Homo sapiens (Human), UniProt Q8NI77); assay: KIF18A Biochemical Assay (ATPase, ADP-Glo)
[2] = tested on: OVCAR-3 cells; assay: In vitro anti-proliferative activity assay in cancer cell line OVCAR-3 (CellTiter-Glo, 4- or 7-day); assay type: cell-based; conditions: Homo sapiens, read-out: OVCAR-3 cellular antiproliferation assay IC50

Sequence of KIF18A (Q8NI77 1-367): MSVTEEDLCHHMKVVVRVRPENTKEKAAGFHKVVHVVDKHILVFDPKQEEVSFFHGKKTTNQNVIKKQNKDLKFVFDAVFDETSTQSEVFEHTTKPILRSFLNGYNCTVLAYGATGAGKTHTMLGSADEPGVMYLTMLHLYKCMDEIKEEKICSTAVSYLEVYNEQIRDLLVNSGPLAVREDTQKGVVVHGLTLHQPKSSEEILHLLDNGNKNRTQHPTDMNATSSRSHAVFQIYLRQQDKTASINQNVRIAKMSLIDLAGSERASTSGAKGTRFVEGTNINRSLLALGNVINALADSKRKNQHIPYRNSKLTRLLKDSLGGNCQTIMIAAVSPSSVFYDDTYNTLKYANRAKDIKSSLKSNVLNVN
Sequence of KIF18A (P02550 whole entry partner): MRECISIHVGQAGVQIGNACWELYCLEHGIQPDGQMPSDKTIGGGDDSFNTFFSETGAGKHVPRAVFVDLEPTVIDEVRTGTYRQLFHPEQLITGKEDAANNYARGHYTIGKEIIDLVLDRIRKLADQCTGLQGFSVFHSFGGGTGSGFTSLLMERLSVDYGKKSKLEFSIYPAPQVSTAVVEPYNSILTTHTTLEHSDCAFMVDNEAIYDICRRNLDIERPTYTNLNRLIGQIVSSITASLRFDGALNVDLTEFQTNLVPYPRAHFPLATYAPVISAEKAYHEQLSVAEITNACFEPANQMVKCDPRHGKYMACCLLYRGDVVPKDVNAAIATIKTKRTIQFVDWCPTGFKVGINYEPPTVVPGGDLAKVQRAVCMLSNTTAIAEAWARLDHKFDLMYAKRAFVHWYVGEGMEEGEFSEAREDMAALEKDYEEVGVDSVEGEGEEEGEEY
Sequence of KIF18A (P02554 whole entry partner): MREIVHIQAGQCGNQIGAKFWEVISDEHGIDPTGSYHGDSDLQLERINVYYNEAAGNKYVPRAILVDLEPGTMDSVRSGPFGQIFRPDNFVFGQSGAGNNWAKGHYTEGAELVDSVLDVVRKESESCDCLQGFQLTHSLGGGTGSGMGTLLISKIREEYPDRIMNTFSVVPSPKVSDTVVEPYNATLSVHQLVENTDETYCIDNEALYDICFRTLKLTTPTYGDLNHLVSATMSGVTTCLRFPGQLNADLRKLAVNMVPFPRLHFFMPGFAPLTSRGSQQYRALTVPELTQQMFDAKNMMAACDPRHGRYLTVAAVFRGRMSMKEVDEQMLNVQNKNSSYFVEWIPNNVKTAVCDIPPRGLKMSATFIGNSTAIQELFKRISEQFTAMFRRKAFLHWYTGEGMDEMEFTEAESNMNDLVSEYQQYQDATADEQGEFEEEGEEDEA

Compound | IC50 [1] [nM] | IC50 ([2]; OVCAR-3, 168 h, 7-day assay) [nM] | further results
C[Si]1(C)CCN(c2cnccc2C(=O)Nc2cccc(S(=O)(=O)N3CCC(F)(F)CC3)c2)CC1 [Example 27] | > 1000 |  | IC50 ([2]; OVCAR-3, 96 h, 4-day assay): > 1000 nM
Cc1cc(NC(=O)c2c(F)cc(NS(=O)(=O)CCO)cc2N2CC[C@]3(C)C[C@@H]3C2)nc(N2CCC(F)(F)CC2)n1 [Example 38] | < 100 |  | IC50 ([2]; OVCAR-3, assay duration not indicated): 100 to 500 nM
C[Si]1(C)CCN(c2cc(NS(=O)(=O)CCO)cc(F)c2C(=O)Nc2cccc(OC[C@@H](O)C(F)(F)F)n2)CC1 [Example 123] | < 100 | 500 to 1000 | 
Cc1cc(NC(=O)c2ccc(NS(=O)(=O)CCO)cc2N2CC[C@]3(C(F)F)C[C@@H]3C2)nc(N2CCC(F)(F)CC2)c1 [Example 65] | < 100 | < 100 | 
C[Si]1(C)CCN(c2cc(NS(C)(=O)=O)ccc2C(=O)Nc2cccc(OC[C@H](O)C(F)(F)F)n2)CC1 [Example 128] | < 100 | 100 to 500 | 
C[C@H]1CN(c2nccc(C(=O)Nc3ccc(NS(=O)(=O)CCO)cc3N3CC[Si](C)(C)CC3)n2)CCO1 [Example 91] |  | 100 to 500 | 
Cc1cc(NC(=O)c2ccc(NS(C)(=O)=O)cc2N2CC[C@]3(C)C[C@@H]3C2)nc(N2CCC(F)(F)CC2)n1 [Example 33] | < 100 |  | IC50 ([2]; OVCAR-3, 96 h, 4-day assay): 100 to 500 nM
Cc1cc(NC(=O)c2ncc(NS(=O)(=O)CCO)cc2N2CC[Si](C)(C)CC2)nc(N2CCC(F)(F)CC2)n1 [Example 26] | < 100 |  | IC50 ([2]; OVCAR-3, 96 h, 4-day assay): 100 to 500 nM
Cc1cc(NC(=O)c2ccc(NS(=O)(=O)CCO)cc2N2CC[C@@]3(C(C)(F)F)C[C@H]3C2)nc(N2CCC(F)(F)CC2)n1 [Example 80] | 100 to 500 | 100 to 500 | 
C[Si]1(C)CCN(c2cc(S(=O)(=O)NCCO)ccc2C(=O)Nc2cccc(OC[C@@H](O)C(F)(F)F)n2)CC1 [Example 131] | < 100 | < 100 | 
Cc1cc(NC(=O)c2c(F)cc(NS(=O)(=O)CCO)cc2N2CC[C@]3(C)C[C@@H]3C2)nc(N2CCC(F)(F)CC2)n1 (single isomer, unassigned) [Example 31a] |  | 100 to 500 | 
Cc1cc(NC(=O)c2ccc(NS(=O)(=O)CCO)cc2N2CC[C@]3(C)C[C@@H]3C2)nc(N2CCC(F)(F)CC2)n1 [Example 62] |  | < 100 | 
C[C@@]12CCN(c3ncccc3C(=O)Nc3cccc(S(=O)(=O)N4CCC(F)(F)CC4)c3)C[C@@H]1C2 [Example 47] | > 1000 |  | 
C[Si]1(C)CCN(c2cc(NS(=O)(=O)CCO)c(F)cc2NC(=O)c2cccc(N3CCC(F)(F)CC3)n2)CC1 [Example 95] |  |  | IC50 ([2]; OVCAR-3, 96 h, 4-day assay): < 100 nM
O=C(Nc1ccnc(N2CCC(F)(F)CC2)n1)c1ccc2c(cnn2CCO)c1N1CCC2(CC1)CC2 [Example 25] | > 1000 |  | 
C[Si]1(C)CCN(c2ncccc2C(=O)Nc2cccc(S(=O)(=O)N3CCC(F)(F)CC3)c2)C1 [Example 93] |  | > 1000 | 
C[C@]12CCN(c3ncccc3C(=O)Nc3cccc(S(=O)(=O)N4CCC(F)(F)CC4)c3)C[C@H]1C2 [Example 46] |  |  | IC50 ([2]; OVCAR-3, 96 h, 4-day assay): > 1000 nM
CC12CCN(c3ncccc3C(=O)Nc3cccc(S(=O)(=O)N4CCC(F)(F)CC4)c3)CC1C2 (stereo not drawn) [Example 45] |  |  | IC50 ([2]; OVCAR-3, 96 h, 4-day assay): > 1000 nM
O=C(Nc1cccc(S(=O)(=O)N2CCC(F)(F)CC2)c1)c1cccnc1N1CCC2CC2C1 (stereo not drawn) [Example 44] | > 1000 |  | 
C[Si]1(C)CCN(c2cc(NS(=O)(=O)CCO)ccc2C(=O)Nc2ccnc(S(=O)(=O)C3CCCC3)n2)CC1 [Example 89] |  | 100 to 500 | 
Cc1cc(NC(=O)c2ccc(NS(=O)(=O)CCO)cc2N2CC[C@@]3(C)C[C@H]3C2)nc(N2CCC(F)(F)CC2)n1 [Example 63] |  | < 100 | 
CC(C)(C)NS(=O)(=O)c1cccc(NC(=O)c2ccc(S(=O)(=O)C3(C)COC3)cc2N2CC[Si](C)(C)CC2)c1 [Example 24] |  |  | IC50 ([2]; OVCAR-3, 96 h, 4-day assay): 100 to 500 nM
CC[Si]1(CC)CCN(c2ncccc2C(=O)Nc2cccc(S(=O)(=O)N3CCC(F)(F)CC3)c2)CC1 [Example 92] |  | > 1000 | 
Cc1cc(NC(=O)c2c(F)cc(NS(=O)(=O)CCO)cc2N2CC[C@@]3(C)C[C@H]3C2)nc(N2CCC(F)(F)CC2)n1 (single isomer, unassigned) [Example 31b] |  | 100 to 500 | 
